Experimental data published in patent publication US9169254B2, “Spiroimidazolone derivative” (Chugai Seiyaku Kabushiki Kaisha, priority 2009, dated 2015).

Biological target: T1, human PTH1 receptor (Homo sapiens, UniProt Q03431)
T1 sequence (Q03431 27-593): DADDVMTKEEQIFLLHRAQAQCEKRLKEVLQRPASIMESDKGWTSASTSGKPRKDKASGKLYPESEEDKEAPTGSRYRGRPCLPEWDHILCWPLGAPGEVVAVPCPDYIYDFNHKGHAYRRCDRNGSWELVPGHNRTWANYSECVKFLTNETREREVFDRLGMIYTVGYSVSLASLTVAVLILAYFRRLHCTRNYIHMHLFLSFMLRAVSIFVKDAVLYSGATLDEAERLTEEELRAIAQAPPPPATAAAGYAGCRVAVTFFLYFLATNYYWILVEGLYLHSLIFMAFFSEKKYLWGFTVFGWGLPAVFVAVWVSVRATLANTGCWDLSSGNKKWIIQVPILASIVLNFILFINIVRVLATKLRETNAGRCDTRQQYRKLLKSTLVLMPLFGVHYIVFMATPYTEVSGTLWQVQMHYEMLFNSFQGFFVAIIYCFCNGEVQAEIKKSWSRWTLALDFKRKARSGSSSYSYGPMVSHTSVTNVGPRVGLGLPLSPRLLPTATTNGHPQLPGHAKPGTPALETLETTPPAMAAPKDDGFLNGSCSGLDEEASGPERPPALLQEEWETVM
Experiment: In vitro cAMP signal activity in HKRK-B7 cells (LLC-PK1 cells overexpressing the human PTH1 receptor)
Type: cell-based
Conditions: HKRK-B7 cells; compound at 1×10^−3 M; […]; 0.1 µM

| SMILES | cAMP production activity (%) |
| --- | --- |
| Cc1cc(N(C)C(=O)NCCN(C)C)ccc1/C=C/S(=O)(=O)N1CCC2(CC1)N=C(c1cccc(OC(F)(F)F)c1)NC2=O [Compound 457, 3-(2-Dimethylamino-ethyl)-1-methyl-1-(3-methyl-4-{(E)-2-[4-oxo-2-(3-trifluoromethoxy-phenyl)-1,3,8-triaza-spiro[4.5]dec-1-ene-8-sulfonyl]-vinyl}-phenyl)-urea] | 25 |

Same assay, conditions: HKRK-B7 cells; compound at 1×10^−3 M; cAMP produced as percentage of that produced by hPTH(1-34) at 100 nM

| cAMP production activity (%) | SMILES |
| --- | --- |
| 87 | CCOC(=O)CCCCCCCCCCCC1=NC2(CCN(S(=O)(=O)CCc3c(C)cc(N(C)C(N)=O)cc3C)CC2)C(=O)N1 [Compound 1347, 12-(8-{2-[2,6-dimethyl-4-(1-methyl-ureido)-phenyl]-ethanesulfonyl}-4-oxo-1,3,8-triaza-spiro[4.5]dec-1-en-2-yl)-dodecanoic acid ethyl ester] |
| 50 | COC(=O)CNc1ccc(/C=C/S(=O)(=O)N2CCC3(CC2)N=C(C2CCCCC2)NC3=O)c(C(F)(F)F)c1 [Compound 493, {4-[(E)-2-(2-cyclohexyl-4-oxo-1,3,8-triaza-spiro[4.5]dec-1-ene-8-sulfonyl)-vinyl]-3-trifluoromethyl-phenylamino}-acetic acid methyl ester] |
| 67 | COCCC1CCC(C2=NC3(CCN(S(=O)(=O)CCc4ccc(C(=O)N(C)C)cc4C)CC3)C(=O)N2)CC1 (centres unmarked) [Compound 902, 4-(2-{2-[4-(2-Methoxy-ethyl)-cyclohexyl]-4-oxo-1,3,8-triaza-spiro[4.5]dec-1-ene-8-sulfonyl}-ethyl)-3,N,N-trimethyl-benzamide] |
| 73 | Cc1cc(N(C)C(N)=O)cc(C)c1/C=C/S(=O)(=O)N1CCC2(CC1)N=C(CCCCCCCCCC(N)=O)NC2=O [Compound 1172, 10-(8-{(E)-2-[2,6-Dimethyl-4-(1-methyl-ureido)-phenyl]-ethenesulfonyl}-4-oxo-1,3,8-triaza-spiro[4.5]dec-1-en-2-yl)-decanoic amide] |
| 74 | Cc1cc(C(=O)N2CCC(O)(CF)CC2)cc(C)c1/C=C/S(=O)(=O)N1CCC2(CC1)N=C(c1cccc(C(C)(F)F)c1)NC2=O [Compound 1267, 2-[3-(1,1-difluoro-ethyl)-phenyl]-8-{(E)-2-[4-(4-fluoromethyl-4-hydroxy-piperidine-1-carbonyl)-2,6-dimethyl-phenyl]-ethenesulfonyl}-1,3,8-triaza-spiro[4.5]dec-1-en-4-one] |
| 31 | O=C1NC(CC2CCCCC2)=NC12CCN(S(=O)(=O)c1cccc(Cl)c1)CC2 [Compound 28, 8-(3-chloro-benzenesulfonyl)-2-cyclohexylmethyl-1,3,8-triaza-spiro[4.5]dec-1-en-4-one] |
| 48 | Cc1cc(N(C)C(N)=O)cc(C)c1CCS(=O)(=O)N1CCC2(CC1)N=C(CCCCCCCCCC(=O)O)NC2=O [Compound 1362, 10-(8-{2-[2,6-dimethyl-4-(1-methyl-ureido)-phenyl]-ethanesulfonyl}-4-oxo-1,3,8-triaza-spiro[4.5]dec-1-en-2-yl)-decanoic acid] |
| 124 | CC(=O)N(C[C@H](O)CO)c1cc(C)c(/C=C/S(=O)(=O)N2CCC3(CC2)N=C(CCCCCCCCC(F)(F)F)NC3=O)c(C)c1 [Compound 707, N—((S)-2,3-Dihydroxy-propyl)-N-(3,5-dimethyl-4-{(E)-2-[4-oxo-2-(9,9,9-trifluoro-nonyl)-1,3,8-triaza-spiro[4.5]dec-1-ene-8-sulfonyl]-vinyl}-phenyl)-acetamide] |
| 65 | Cc1cc(C(=O)N(C)C)ccc1CCS(=O)(=O)N1CCC2(CC1)N=C(c1cc(C(F)(F)F)cc(C(F)(F)F)c1)NC2=O [Compound 82, 4-{2-[2-(3,5-bis-trifluoromethyl-phenyl)-4-oxo-1,3,8-triaza-spiro[4.5]dec-1-ene-8-sulfonyl]-ethyl}-3,N,N-trimethyl-benzamide] |
| 83 | CC(=O)N(C)c1ccc(CCS(=O)(=O)N2CCC3(CC2)N=C(c2cccc(OC(F)(F)F)c2)NC3=O)c(C)c1 [Compound 299, N-methyl-N-(3-methyl-4-{2-[4-oxo-2-(3-trifluoromethoxy-phenyl)-1,3,8-triaza-spiro[4.5]dec-1-ene-8-sulfonyl]-ethyl}-phenyl)-acetamide] |
| 36 | Cc1cc(N2CCC2=O)ccc1CCS(=O)(=O)N1CCC2(CC1)N=C(C1CCCCC1)NC2=O [Compound 861, 2-cyclohexyl-8-{2-[2-methyl-4-(2-oxo-azetidin-1-yl)-phenyl]-ethanesulfonyl}-1,3,8-triaza-spiro[4.5]dec-1-en-4-one] |
| 79 | Cc1cc(C(=O)N(C)C)ccc1CCS(=O)(=O)N1CCC2(CC1)N=C(c1ccc(Cl)c(C(F)(F)F)c1)NC2=O [Compound 126, 4-{2-[2-(4-chloro-3-trifluoromethyl-phenyl)-4-oxo-1,3,8-triaza-spiro[4.5]dec-1-ene-8-sulfonyl]-ethyl}-3,N,N-trimethyl-benzamide] |
| 26 | CS(=O)(=O)c1cccc(C2=NC3(CCN(S(=O)(=O)c4cccc(Cl)c4)CC3)C(=O)N2)c1 [Compound 32, 8-(3-chloro-benzenesulfonyl)-2-(3-methanesulfonyl-phenyl)-1,3,8-triaza-spiro[4.5]dec-1-en-4-one] |
| 60 | Cc1noc(C)c1-c1ccccc1CCS(=O)(=O)N1CCC2(CC1)N=C(C1CCCCC1)NC2=O [Compound 338, 2-Cyclohexyl-8-{2-[2-(3,5-dimethyl-isoxazol-4-yl)-phenyl]-ethanesulfonyl}-1,3,8-triaza-spiro[4.5]dec-1-en-4-one] |
| 72 | O=C1NC(C2CCCCC2)=NC12CCN(S(=O)(=O)CCc1cccc3c1ccn3C[C@H](O)CO)CC2 [Compound 309, 2-cyclohexyl-8-{2-[1-((S)-2,3-dihydroxy-propyl)-1H-indol-4-yl]-ethanesulfonyl}-1,3,8-triaza-spiro[4.5]dec-1-en-4-one] |
| 24 | Cc1cc(N(C)C(N)=O)cc(C)c1CCS(=O)(=O)N1CCC2(CC1)N=C(CCCCCCCCCCCC(=O)O)NC2=O [Compound 1170, 12-(8-{2-[2,6-dimethyl-4-(1-methyl-ureido)-phenyl]-ethanesulfonyl}-4-oxo-1,3,8-triaza-spiro[4.5]dec-1-en-2-yl)-dodecanoic acid] |
| 7.3 | Cc1cc2ccc1CCS(=O)(=O)N1CCC3(CC1)N=C(NC3=O)c1cc(cc(C(F)(F)F)c1)OCCC=CCCCN(C)C2=O [Compound 1406] |
| 98 | O=C1NC(c2cccc(C(F)(F)F)c2)=NC12CCN(S(=O)(=O)CCc1cccc3c1ccn3C[C@H](O)CO)CC2 [Compound 840, 8-{2-[1-((S)-2,3-dihydroxy-propyl)-1H-indol-4-yl]-ethanesulfonyl}-2-(3-trifluoromethyl-phenyl)-1,3,8-triaza-spiro[4.5]dec-1-en-4-one] |
| 65 | Cc1cc(N2C(=O)NC(C)(C)C2=O)cc(C)c1CCS(=O)(=O)N1CCC2(CC1)N=C(C1CCC(C)CC1)NC2=O (centres unmarked) [Compound 869, 3-(3,5-dimethyl-4-{2-[2-(4-methyl-cyclohexyl)-4-oxo-1,3,8-triaza-spiro[4.5]dec-1-ene-8-sulfonyl]-ethyl}-phenyl)-5,5-dimethyl-imidazolidine-2,4-dione] |
